According to US4334019A, “Process for producing de(mycinosyloxy)tylosin” (Eli Lilly and Company, priority 1981, dated 1982):
≈ marks a conversion by molar mass, not a printed value.

How the values were obtained:
[1] = test system: Streptomyces fradiae E2724.1; experiment: Antibiotic sensitivity (sensitivity discs), E2724.1; type: cell-based; details: discs: chloramphenicol 30 μg, erythromycin 15 μg, cephaloridine 30 μg, lincomycin 2 μg, polymyxin B 300 units, streptomycin 10 μg, tetracycline 30 μg, vancomycin 30 μg; note: key: -: resistance (no zones of inhibition); +: sensitivity (zones of inhibition); trace of sensitivity
Excerpt: (§1) ^a Determined by using sensitivity discs padded onto seededagar

[2] = test system: Streptomyces fradiae NRRL 11271; experiment: Antibiotic sensitivity (sensitivity discs), NRRL 11271; type: cell-based; details: discs: chloramphenicol 30 μg, erythromycin 15 μg, cephaloridine 30 μg, lincomycin 2 μg, polymyxin B 300 units, streptomycin 10 μg, tetracycline 30 μg, vancomycin 30 μg; note: key: -: resistance (no zones of inhibition); +: sensitivity (zones of inhibition); trace of sensitivity
Excerpt: as §1

Mycoplasma gallisepticum = experiment: MIC, standard agar-dilution assay, Mycoplasma gallisepticum; type: cell-based; details: Mycoplasmoides gallisepticum
Mycoplasma hyopneumoniae = experiment: MIC, standard agar-dilution assay, Mycoplasma hyopneumoniae; type: cell-based; details: Mesomycoplasma hyopneumoniae
Mycoplasma hyorhinis = experiment: MIC, standard agar-dilution assay, Mycoplasma hyorhinis; type: cell-based
[3] = test system: Streptococcus pyogenes C203; experiment: MIC, standard agar-dilution assay, Streptococcus pyogenes C203; type: cell-based
[4] = test system: Streptococcus pyogenes C203; experiment: In vivo activity against experimental bacterial infection in mice (ED50); details: C203, sc, subcutaneous, two doses, bacterial challenge 268 X LD50, effective dose to protect 50% of the test animals
Description: The DMOT compounds have shown in vivo antimicrobial activity against experimental bacterial infections. When two doses of test compound were administered to mice in experimental infections, the activity observed was measured as an ED50 value [effective dose in mg/kg to protect 50% of the test animals: see Warren Wick, et al., J. Bacteriol. 81, 233-235 (1961)].
^a Subcutaneous; mg/kg × 2

[5] = test system: Staphylococcus aureus 3055; experiment: MIC, standard agar-dilution assay, Staphylococcus aureus 3055; type: cell-based
[6] = test system: gram-positive microorganisms and Mycoplasma species; experiment: Growth inhibition of pathogenic organisms (general statement); type: cell-based
[7] = Electrometric titration of DMOT (pKa); type: physicochemical; details: 66% aqueous dimethylformamide
Excerpt: Electrometric titration of DMOT in 66% aqueous dimethylformamide indicates the presence of a titratable group with a pKa value of about 7.3.

[8] = test system: Streptococcus sp. (Group D) 282; experiment: MIC, standard agar-dilution assay, Streptococcus sp. (Group D) 282; type: cell-based
Pasteurella hemolytica = experiment: MIC, standard agar-dilution assay, Pasteurella hemolytica; type: cell-based
Solubility = type: physicochemical; details: free base
Pasteurella multocida = experiment: MIC, standard agar-dilution assay, Pasteurella multocida; type: cell-based
[9] = test system: Streptococcus pneumoniae Park I; experiment: MIC, standard agar-dilution assay, Streptococcus pneumoniae Park I; type: cell-based

O=C(Cc1cccs1)N[C@@H]1C(=O)N2C(C(=O)[O-])=C(C[n+]3ccccc3)CS[C@H]12 [Cephaloridine]
Antibiotic sensitivity, E2724.1 [1]: +
Antibiotic sensitivity, NRRL 11271 [2]: +

O=C(N[C@H](CO)[C@H](O)c1ccc([N+](=O)[O-])cc1)C(Cl)Cl [Chloramphenicol]
Antibiotic sensitivity, E2724.1 [1]: +
Antibiotic sensitivity, NRRL 11271 [2]: +

CCC1OC(=O)CC(O)C(C)C(OC2OC(C)C(OC3CC(C)(O)C(O)C(C)O3)C(N(C)C)C2O)C(CC=O)CC(C)C(=O)C=CC(C)=CC1C (stereo not shown) [DMOT, 23-de(mycinosyloxy)tylosin]
MIC (Mycoplasma gallisepticum): 0.097 µg/mL (≈ 0.134 µM)
MIC (Mycoplasma hyopneumoniae): 0.39 µg/mL (≈ 0.537 µM)
MIC (Mycoplasma hyorhinis): 0.78 µg/mL (≈ 1.07 µM)
MIC [3]: 0.25 µg/mL (≈ 0.344 µM)
ED50 [4]: 6.3 mg/kg
MIC [5]: 1 µg/mL (≈ 1.38 µM)
antibacterial activity (in words) [6]: especially active against gram-positive microorganisms and Mycoplasma species
pKa [7]: ~7.3
MIC [8]: 0.5 µg/mL (≈ 0.689 µM)
MIC (Pasteurella hemolytica): 25 µg/mL (≈ 34.4 µM)
solubility in polar organic solvents (Solubility; most polar organic solvents, such as acetone, methanol, ethanol, dimethylformamide, chloroform and dimethyl sulfoxide): soluble
solubility in water (Solubility; water): sparingly soluble
MIC (Pasteurella multocida): 6.25 µg/mL (≈ 8.61 µM)
MIC [9]: 0.13 µg/mL (≈ 0.179 µM)

CC[C@H]1OC(=O)[C@H](C)[C@@H](O[C@H]2C[C@@](C)(OC)[C@@H](O)[C@H](C)O2)[C@H](C)[C@@H](O[C@@H]2O[C@H](C)C[C@H](N(C)C)[C@H]2O)[C@](C)(O)C[C@@H](C)C(=O)[C@H](C)[C@@H](O)[C@]1(C)O [Erythromycin]
Antibiotic sensitivity, NRRL 11271 [2]: +

CCC[C@@H]1C[C@@H](C(=O)N[C@@H]([C@H]2O[C@H](SC)[C@H](O)[C@@H](O)[C@H]2O)[C@@H](C)O)N(C)C1 [Lincomycin]
Antibiotic sensitivity, E2724.1 [1]: -
Antibiotic sensitivity, NRRL 11271 [2]: -

[H]/N=C(/N)N[C@H]1[C@H](O)[C@@H](O)[C@H](O[C@@H]2O[C@@H](C)[C@](O)(C=O)[C@H]2O[C@@H]2O[C@@H](CO)[C@H](O)[C@@H](O)[C@@H]2NC)[C@@H](N/C(N)=N\[H])[C@@H]1O [Streptomycin]
Antibiotic sensitivity, E2724.1 [1]: +
Antibiotic sensitivity, NRRL 11271 [2]: +

CN(C)[C@@H]1C(O)=C(C(N)=O)C(=O)[C@@]2(O)C(O)=C3C(=O)c4c(O)cccc4[C@@](C)(O)[C@H]3C[C@@H]12 [Tetracycline]
Antibiotic sensitivity, E2724.1 [1]: +
Antibiotic sensitivity, NRRL 11271 [2]: +

CN[C@H](CC(C)C)C(=O)N[C@H]1C(=O)N[C@@H](CC(N)=O)C(=O)N[C@H]2C(=O)N[C@H]3C(=O)N[C@H](C(=O)N[C@H](C(=O)O)c4cc(O)cc(O)c4-c4cc3ccc4O)[C@H](O)c3ccc(c(Cl)c3)Oc3cc2cc(c3O[C@@H]2O[C@H](CO)[C@@H](O)[C@H](O)[C@H]2O[C@H]2C[C@](C)(N)[C@H](O)[C@H](C)O2)Oc2ccc(cc2Cl)[C@H]1O [Vancomycin]
Antibiotic sensitivity, E2724.1 [1]: +
Antibiotic sensitivity, NRRL 11271 [2]: +

CCC1OC(=O)CC(O)C(C)C(OC2OC(C)C(OC3CC(C)(O)C(O)C(C)O3)C(N(C)C)C2O)C(CCO)CC(C)C(=O)C=CC(C)=CC1C (stereo not shown) [dihydro-DMOT, 20-dihydro-23-de(mycinosyloxy)tylosin]
antibacterial activity (in words) [6]: especially active against gram-positive microorganisms and Mycoplasma species
